Test results reported in patent US8790654B2, “Glycosylceramide adjuvant for saccharide antigens” (Novartis AG, priority 2004, dated 2014).
“Also recorded” adds a separate entry of the source.

Tests used:
Type in all cases: in vivo
MenC polysaccharide = assay: MenC-specific Ig titre in mice immunised with MenC, MenC+CRM or MenC-CRM conjugate with or without α-GalCer; conditions: 30 μg MenC-CRM conjugate and α-GalCer, compared with MenC-CRM conjugate and PBS; three immunisations
Description: C) Immunisation schedule for mice with different polysaccharides, plain, conjugated or admixed with protein carriers, with and without α-GalCer. Ten groups of wild-type C57BL/6 mice were primed on day 0 with: 1) PBS, 2) 0.1 μg with α-GalCer, 3) 10 μg MenC polysaccharide, 4) 20 μg CRM protein carrier, 5) 30 μg of a MenC-CRM conjugate, 6) 10 μg MenC polysaccharide admixed with CRM protein carrier, or the compositions in 3)-6) and α-GalCer (groups 7-10). Mice were boosted two and four weeks after they were primed with the same composition with which they were primed. Mice were bled 2, 4 and 6 weeks after initial priming (2wp1, 2wp2 and 2wp3) and the levels of antibodies against both the MenC polysaccharide and the CRM carrier were measured.
FIG. 5: α-GalCer enhances the specific antibody response against both the MenC polysaccharide and the CRM protein carrier in a MenC-CRM conjugate. Wild-type mice were primed with 10 μg MenC polysaccharide, 20 μg CRM protein carrier, 10 μg MenC polysaccharide admixed with CRM protein carrier (MenC+CRM), or 30 μg of a MenC-CRM conjugate, or the same compositions with α-GalCer. […]
FIG. 7: Antibody response is enhanced in mice immunised with α-GalCer and MenC-CRM conjugate. […] The MenC-specific titre was measured one week post the second immunisation (1wp2) and one week post third immunisation (1wp3).

[1] = test system: S. pneumoniae polysaccharides; assay: S. pneumoniae-specific antibody titres by ELISA in mice immunised with Streptopur with or without α-GalCer
Hib = assay: Hib-specific Ig titre in mice immunised with Hib-HSA conjugate mixed with PBS, α-GalCer or MF59; conditions: 15 μg Hib-HSA conjugate mixed with α-GalCer, compared with Hib-HSA conjugate and PBS; three immunisations; 1wp2 and 1wp3
Description: FIG. 11: Antibody response is enhanced in mice immunised with α-GalCer and Hib-HSA conjugate. […] Each group of mice was immunised three times. The Hib-specific titre was measured 1 week post the second immunisation (1wp2) and 1 week post the third immunisation (1wp3).

[2] = test system: S. pneumoniae-specific B cells; assay: Number of S. pneumoniae-specific B cells in spleens by Elispot; conditions: mice primed with 0.1 or 1.0 μg α-GalCer and boosted with 11.5 μg Streptopur 12 weeks later, compared with PBS prime and Streptopur boost; Elispot at 18-22 weeks
MenA polysaccharide = assay: MenA-specific antibody titres in mice immunised with MenA polysaccharide or MenA-CRM conjugate with or without α-GalCer
Description: FIG. 6: α-GalCer enhances the immune response to a MenA-CRM conjugate. Mice were immunised with 10 μg MenA polysaccharide or MenA-CRM conjugate with or without α-GalCer. Antibodies titres against the MenA polysaccharide were measured 4, 8 and 12 days post priming. α-GalCer enhanced the immune response to the MenA polysaccharide.

CCCCCCCCCCCCCCCCCCCCCCCCCC(=O)N[C@@H](CO[C@H]1O[C@H](CO)[C@H](O)[C@H](O)[C@H]1O)[C@H](O)[C@H](O)CCCCCCCCCCCCCC [α-GalCer, α-galactosylceramide]
MenC-specific Ig titres (MenC polysaccharide): enhanced; also recorded: significant increase | S. pneumoniae specific IgM antibodies (geomean) by age of mice ([1]; 8 days after priming mice of different ages with 3.5 μg Streptopur and 0.1 μg α-GalCer, compared with Streptopur alone): suppresses; also recorded: suppression | S. pneumoniae-specific antibody titres in NKT-deficient mice ([1]; JA18−/−, CD1d−/− and CD1d−/+ mice primed with 3.5 μg Streptopur and 0.1 μg α-GalCer, compared with Streptopur alone, 4, 8, 12 days after priming): no significant difference | S. pneumoniae-specific antibody titers after boost ([1]; mice primed with Streptopur and 0.1 μg α-GalCer and boosted with Streptopur, compared with primed and boosted with Streptopur alone, 8 days after boosting): lower | S. pneumoniae-specific antibody titres (IgM, geomean) ([1]; wild-type C57BL/6 mice primed i.m. with Streptopur and 0.1 μg α-GalCer, compared with Streptopur alone, 4, 8, 12 days after priming): lower; also recorded: reduced | Hib-specific Ig titres (Hib): enhanced; also recorded: considerably higher | Number of S. pneumoniae-specific B cells per 10^6 splenocytes [2]: lower numbers | MenA-specific Ig titres (MenA polysaccharide; MenA-CRM conjugate and α-GalCer, compared with conjugate without α-GalCer, 4, 8, 12 days post priming): enhances; also recorded: increase | Inhibitory action on the response to unconjugated MenA saccharides (MenA polysaccharide; unconjugated MenA polysaccharide with α-GalCer): not observed
